{"source": "patent US20150284347A1", "about": "“NEW BENZENE SULFONAMIDE THIAZOLE COMPOUNDS” (INSERM (INSTITUT NATIONAL DE LA SANTÉ ET DE LA RECHERCHE …, priority 2012, published 2015)", "key": {"prostate cells LNCAP": {"test_system": "prostate cells LNCAP", "experiment": "Trypan blue cell viability, LNCAP", "type": "cell-based", "conditions": "10 μM, trypan blue exclusion, FIG. 1", "protocol": "(§1) Cell viability was assessed by measuring the number of cells alive in samples of two different kind of prostate cells, respectively noted LNCAP and PC3, of breast cells noted MCF7, of colon cells noted HT29, of metastatic melanoma cell lines A375 and of melanoma cells from patients noted GIC. The measure of cell viability as performed by cell counting using the trypan blue exclusion method. Results were expressed as the percentage of cells alive relatively to the number of living cells in the presence of DMSO, which corresponds to the negative control associated to the 100% value. Cells were seeded in 6-well plates (60000 cells/well), depleted and incubated with compounds for the times indicated. Then cells were detached in the presence of 2000 of […] (Thermo) and 2 ml of RPMI 1640 Glutamax (Gibco) was added to the cell solution. 100 of this solution was stained for 1 minute with 100 of 0.4% trypan blue before counting with a Malassez chamber. The effect of compound on cell viability was studied on different types of cells. […] Cancer cells from prostate, breast, colon and melanoma A375 came from cell lines cultures. […] Results are expressed as percentage of cells alive relatively to the number of living cells in the presence of DMSO, which corresponds to the negative control associated to the 100% value. […]"}, "prostate cells PC3": {"test_system": "prostate cells PC3", "experiment": "Trypan blue cell viability, PC3", "type": "cell-based", "conditions": "10 μM, PC3, trypan blue exclusion, FIG. 1", "protocol": "as §1"}, "colon cells HT29": {"test_system": "colon cells HT29", "experiment": "Trypan blue cell viability, HT29", "type": "cell-based", "conditions": "10 μM, HT29, trypan blue exclusion, FIG. 1", "protocol": "as §1"}, "normal human melanocytes": {"test_system": "normal human melanocytes", "experiment": "Trypan blue cell viability, normal melanocytes", "type": "cell-based", "conditions": "10 μM, FIG. 2", "protocol": "Primary cell cultures of human normal melanocytes were prepared from human foreskin. In order to determine the effect of compound HA15 on cell viability of melanocytes and fibroblasts, 10 μM of ciglitazone or 10 μM of HA15 were added to the cell samples. The measure of cell viability was performed in the same way as for FIG. 1. Results are expressed as the percentage of living cells relatively to the number of living cells in the presence of DMSO, as for FIG. 1. Normal human melanocytes (NHM) prepared from foreskins of newborns were grown under 5% CO2 at 37° C. in MCDB 153 (Sigma) supplemented with 2% FCS, bovine pituitary extract (10 μg/ml), PMA (8 nM), bFGF (ing/nil), insulin (5 μg/ml), hydrocortisone (0.5 μg/ml), forskolin (10 μM), gentamicin (20 μg/ml), penicillin/streptomycin/amphotericin B (100 U/ml) (Invitrogen). Cells were seeded in 6-well plates (60000 cells/well), depleted and incubated with compounds for the times indicated. Then cells were detached in the presence of 2000 of […] (Thermo) and 2 ml of RPMI 1640 Glutamax (Gibco) was added to the cell solution. 100 of this solution was stained for 1 minute with 100 of 0.4% trypan blue before counting with a Malassez chamber. The effect of compound HA15 on cell viability of melanocytes and fibroblasts was studied, as illustrated by FIG. 2. Primary cell cultures of human normal melanocytes were prepared from human foreskin. […]"}, "normal human fibroblasts": {"test_system": "normal human fibroblasts", "experiment": "Trypan blue cell viability, normal fibroblasts", "type": "cell-based", "conditions": "10 μM, FIG. 2", "protocol": "Primary cell cultures of human normal melanocytes were prepared from human foreskin. In order to determine the effect of compound HA15 on cell viability of melanocytes and fibroblasts, 10 μM of ciglitazone or 10 μM of HA15 were added to the cell samples. The measure of cell viability was performed in the same way as for FIG. 1. Results are expressed as the percentage of living cells relatively to the number of living cells in the presence of DMSO, as for FIG. 1. Normal human fibroblasts prepared from foreskins of newborns were grown under 5% CO2 at 37° C. in DMEM medium supplemented with 10% FCS and penicillin/streptomycin (100 U/ml/[…]). Cells were seeded in 6-well plates (60000 cells/well), depleted and incubated with compounds for the times indicated. Then cells were detached in the presence of 2000 of […] (Thermo) and 2 ml of RPMI 1640 Glutamax (Gibco) was added to the cell solution. 100 of this solution was stained for 1 minute with 100 of 0.4% trypan blue before counting with a Malassez chamber. The effect of compound HA15 on cell viability of melanocytes and fibroblasts was studied, as illustrated by FIG. 2. Primary cell cultures of human normal melanocytes were prepared from human foreskin. In order to determine the effect of compound HA15 on cell viability of melanocytes and fibroblasts, 10 μM of ciglitazone or 10 μM of HA15 were added to the cell samples. […]"}, "[1]": {"test_system": "melanoma cells resistant to dabrafenib", "experiment": "Trypan blue cell viability, melanoma cells resistant to dabrafenib", "type": "cell-based, human", "conditions": "patient melanoma cells resistant to dabrafenib, FIG. 5", "protocol": "The measure of cell viability was performed in the same way as for FIG. 1. Results are expressed as percentage of cells alive relatively to the number of living cells in the presence of DMSO, which is a negative control\nCells were seeded in 6-well plates (60000 cells/well), depleted and incubated with compounds for the times indicated. Then cells were detached in the presence of 2000 of HyQTase (Thermo) and 2 ml of RPMI 1640 Glutamax (Gibco) was added to the cell solution. 100 of this solution was stained for 1 minute with 100 of 0.4% trypan blue before counting with a Malassez chamber.\nMelanoma cells resistant to dabrafenib wee prepared from patients treated and presented a resistance to dabrafenib. dabrafenib, [HA15], [SR47] and [SR50] were tested on these resistant cells, in order to determine their activity on cell viability of resistant melanoma cells, as illustrated in FIG. 5."}}}
{"smiles": "CC(=O)Nc1nc(-c2cccc(NS(=O)(=O)c3cccc4c(N(C)C)cccc34)c2)cs1", "note": "[HA15, N-(4-(3-(5-(dimethylamino)naphthalene-1-sulfonamido)phenyl)thiazol-2-yl)acetamide]", "values": [{"measurement": "cell viability (cells alive relative to DMSO)", "setting": "prostate cells LNCAP", "value": "viability greatly reduced"}, {"measurement": "cell viability (cells alive relative to DMSO)", "setting": "prostate cells PC3", "value": "viability greatly reduced"}, {"measurement": "cell viability (cells alive relative to DMSO)", "setting": "colon cells HT29", "value": "viability greatly reduced"}, {"measurement": "cell viability of normal melanocytes", "setting": "normal human melanocytes", "value": "not affected"}, {"measurement": "cell viability of normal fibroblasts", "setting": "normal human fibroblasts", "value": "not affected"}, {"measurement": "cell viability of resistant melanoma cells", "setting": "[1]", "value": "inhibit cell viability of resistant melanoma cells"}]}
